Drawing on patent publication US5631222A, “Endothelin-antagonizing peptide” (Kyowa Hakko Kogyo Co., Ltd., priority 1993, dated 1997), this text covers IC50 for 20 compounds.

This test has as its target T1, endothelin receptor (Bos taurus, UniProt P28088).
T1 construct: the suspension was used as a membrane fraction liquid; from tissue; host or cells: bovine cerebellum membrane fraction
T1 sequence (P28088 27-441): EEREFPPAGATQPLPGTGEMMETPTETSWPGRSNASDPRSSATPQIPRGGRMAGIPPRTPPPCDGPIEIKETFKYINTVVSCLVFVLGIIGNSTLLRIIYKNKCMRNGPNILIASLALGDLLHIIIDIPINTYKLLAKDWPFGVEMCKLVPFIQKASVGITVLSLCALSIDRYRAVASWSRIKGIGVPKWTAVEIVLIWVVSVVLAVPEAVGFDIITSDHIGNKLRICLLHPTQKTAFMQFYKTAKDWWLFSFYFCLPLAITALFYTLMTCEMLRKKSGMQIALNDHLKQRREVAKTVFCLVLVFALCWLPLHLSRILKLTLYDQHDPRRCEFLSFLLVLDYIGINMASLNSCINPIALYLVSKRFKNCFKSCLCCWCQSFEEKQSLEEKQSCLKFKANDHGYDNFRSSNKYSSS
As to the kind of experiment: Endothelin receptor-antagonizing activity: inhibition of 125I-endothelin-1 binding to bovine cerebellum membrane fraction. Particulars: 125I-Endothelin-1, bovine cerebellum membrane fraction, 25° C. for 2 hours; read-out: IC50: Concentration causing 50% inhibition of endothelin1 binding. Here is the method: Bovine cerebellum tissue was homogenized at 4° C. by using POLYTRON (type PT10/35, manufactured by Kinematic Gmbh Co.) in a buffer solution A (1 mM NaHCO3, 5 mM ethylenediaminetetraacetic acid, 5 μg/ml leupeptin, 5 μg/ml pepstatin A, 40 μM phenylmethylsulfonyl fluoride, pH 8.3).
The obtained suspension was centrifuged for 10 minutes at 8,000 G and 4° C., and the resulting supernatant was centrifuged for 60 minutes at 40,000 G and 4° C. to obtain pellets. The obtained pellets were suspended in a buffer solution A and again centrifuged for 60 minutes at 40,000 G and 4° C. The resulting solid substance was prepared as a suspension containing 2 mg/ml of protein, and the suspension was used as a membrane fraction liquid. […] These mixtures were incubated at 25° C. for 2 hours, and then filtered with a GF/B glass filter (produced by Whatman Co.). […] The inhibition ratio against endothelin receptor binding activity was calculated according to the following equation:
Inhibition ratio (%)=(C-A/C-B)×100
B: Radioactivity in the presence of unlabelled endothelin-1
C: Radioactivity in the absence of both of the compound shown in Table 2 and unlabelled endothelin-1

Positions of bridges follow the written chain, without caps; N, C: chain ends. Non-standard residues stand in square brackets, D forms with d. Residues, ends and D or L forms follow the SMILES beside them. 2Thi = N[C@@H](Cc1cccs1)C(=O)O; Phg = N[C@H](C(=O)O)c1ccccc1; Nle = CCCC[C@H](N)C(=O)O

Regarding H-GNWHGTAPDWVYFAHLNYIW-OH [Compound 20], the IC50 worked out at 12 nM.

Take H-GNWHGTAADWVYFAHLSMIW-OH [Compound 46]: the IC50 was 0.8 nM.

Turning to H-GNWHGTAPDWVYFAHLTLIW-OH [Compound 13], the IC50 was determined as 2.9 nM.

On to `CC[C@H](C)[C@H](NC(=O)[C@H](Cc1cccs1)NC(=O)[C@@H](NC(=O)[C@H](CC(C)C)NC(=O)[C@H](Cc1c[nH]cn1)NC(=O)[C@H](C)NC(=O)[C@H](Cc1ccccc1)NC(=O)[C@H](Cc1ccc(O)cc1)NC(=O)[C@@H]1CCCN1C(=O)[C@H](Cc1c[nH]c2ccccc12)NC(=O)[C@H](CC(=O)O)NC(=O)[C@@H]1CCCN1C(=O)[C@H](C)NC(=O)[C@@H](NC(=O)CNC(=O)[C@H](Cc1c[nH]cn1)NC(=O)[C@H](Cc1c[nH]c2ccccc12)NC(=O)[C@H](CC(N)=O)NC(=O)CN)[C@@H](C)O)[C@@H](C)O)C(=O)N[C@@H](Cc1c[nH]c2ccccc12)C(=O)O` [Compound 48, HGlyAsnTrpHisGlyThrAlaProAspTrpProTyrPheAlaHisLeuThrThiIleTrpOH] (H-GNWHGTAPDWPYFAHLT[2Thi]IW-OH), for which the IC50 amounted to 5 nM.

`CC[C@@H](C)[C@@H](NC(=O)[C@H](Cc1cccs1)NC(=O)[C@@H](NC(=O)[C@H](CC(C)C)NC(=O)[C@H](Cc1c[nH]cn1)NC(=O)[C@H](C)NC(=O)[C@H](Cc1ccccc1)NC(=O)[C@H](Cc1ccc(O)cc1)NC(=O)[C@@H](NC(=O)[C@H](Cc1c[nH]c2ccccc12)NC(=O)[C@H](CC(=O)O)NC(=O)[C@@H]1CCCN1C(=O)[C@H](C)NC(=O)[C@@H](NC(=O)CNC(=O)[C@H](Cc1c[nH]cn1)NC(=O)[C@H](Cc1c[nH]c2ccccc12)NC(=O)[C@H](CC(N)=O)NC(=O)CN)[C@@H](C)O)C(C)C)[C@@H](C)O)C(=O)N[C@@H](Cc1c[nH]c2ccccc12)C(=O)O` [Compound 31, HGlyAsnTrpHisGlyThrAlaProAspTrpValTyrPheAlaHisLeuThrThiD-IleTrpOH] (H-GNWHGTAPDWVYFAHLT[2Thi][dI]W-OH): the IC50 came to 210 nM.

Consider “H-WHGTAPDWVYFAHLDIIW-OH [Compound 8, HTrpHisGlyThrAlaProAspTrpValTyrPheAlaHisLeuAspIleIleTrpOH]”, for which the IC50 was 0.076 nM.

As for `CC[C@H](C)[C@H](NC(=O)[C@@H](NC(=O)[C@@H](NC(=O)[C@H](CC(C)C)NC(=O)[C@H](Cc1c[nH]cn1)NC(=O)[C@H](C)NC(=O)[C@H](Cc1ccccc1)NC(=O)[C@H](Cc1ccc(O)cc1)NC(=O)[C@@H](NC(=O)[C@H](Cc1c[nH]c2ccccc12)NC(=O)[C@H](CC(=O)O)NC(=O)[C@@H]1CCCN1C(=O)[C@H](C)NC(=O)[C@@H](NC(=O)CNC(=O)[C@H](Cc1c[nH]cn1)NC(=O)[C@H](Cc1c[nH]c2ccccc12)NC(=O)[C@H](CC(N)=O)NC(=O)CN)[C@@H](C)O)C(C)C)[C@@H](C)O)c1ccccc1)C(=O)N[C@@H](Cc1c[nH]c2ccccc12)C(=O)O` [Compound 25, HGlyAsnTrpHisGlyThrAlaProAspTrpValTyrPheAlaHisLeuThrPhgIleTrpOH] (H-GNWHGTAPDWVYFAHLT[Phg]IW-OH), the IC50 was 0.58 nM.

Consider `CC[C@H](C)[C@H](NC(=O)[C@H](CC(=O)O)NC(=O)[C@H](CC(C)C)NC(=O)[C@H](Cc1c[nH]cn1)NC(=O)[C@H](C)NC(=O)[C@H](Cc1ccccc1)NC(=O)[C@H](Cc1ccc(O)cc1)NC(=O)[C@@H](NC(=O)[C@H](Cc1c[nH]c2ccccc12)NC(=O)[C@@H]1CC(=O)NCC(=O)N[C@@H](CO)C(=O)N[C@@H](C)C(=O)N[C@@H](C)C(=O)N[C@@H](C(C)C)C(=O)N[C@@H](Cc2ccc(O)cc2)C(=O)N[C@@H](Cc2ccccc2)C(=O)N1)C(C)C)C(=O)N[C@H](C(=O)N[C@@H](Cc1c[nH]c2ccccc12)C(=O)O)[C@@H](C)CC` [Compound 53] (GSAAVYFDWVYFAHLDIIW-OH; lactam N-8), for which the IC50 amounted to 2.4 nM.

In the case of H-GNWHGTAPDWVYFAHLDLIW-OH [Compound 16], the IC50 worked out at 5.4 nM.

Turning to H-GNWHGGAPDWVYFAHLDIIW-OH [Compound 3], the IC50 is 0.064 nM.

As to `CC[C@H](C)[C@H](NC(=O)[C@H](CC(C)C)NC(=O)[C@@H](NC(=O)[C@H](CC(C)C)NC(=O)[C@H](Cc1c[nH]cn1)NC(=O)[C@H](C)NC(=O)[C@H](Cc1ccccc1)NC(=O)[C@H](Cc1ccc(O)cc1)NC(=O)[C@@H](NC(=O)[C@H](Cc1c[nH]c2ccccc12)NC(=O)[C@@H]1CC(=O)NCC(=O)N[C@@H](CC(N)=O)C(=O)N[C@@H](Cc2c[nH]c3ccccc23)C(=O)N[C@@H](Cc2c[nH]cn2)C(=O)NCC(=O)N[C@@H]([C@@H](C)O)C(=O)N[C@@H](C)C(=O)N2CCC[C@H]2C(=O)N1)C(C)C)[C@@H](C)O)C(=O)N[C@@H](Cc1c[nH]c2ccccc12)C(=O)O` [Compound 40] (GNWHGTAPDWVYFAHLTLIW-OH; lactam N-9), the IC50 amounted to 34 nM.

Turning to “H-GNWHGTAPDWFAHLDIIW-OH [Compound 11, HGlyAsnTrpHisGlyThrAlaProAspTrpPheAlaHisLeuAspIleIleTrpOH]”, the IC50 stood at 6.1 nM.

As to `CC[C@H](C)[C@H](NC(=O)[C@H](CC(=O)O)NC(=O)[C@H](CC(C)C)NC(=O)[C@H](Cc1c[nH]cn1)NC(=O)[C@H](C)NC(=O)[C@H](Cc1ccccc1)NC(=O)[C@H](Cc1ccc(O)cc1)NC(=O)[C@@H](NC(=O)[C@H](Cc1c[nH]c2ccccc12)NC(=O)[C@@H]1CSSC[C@H](N)C(=O)N[C@@H](CC(N)=O)C(=O)N[C@@H](Cc2c[nH]c3ccccc23)C(=O)N[C@@H](Cc2c[nH]cn2)C(=O)NCC(=O)N[C@@H]([C@@H](C)O)C(=O)N[C@@H](C)C(=O)N2CCC[C@H]2C(=O)N1)C(C)C)C(=O)N[C@H](C(=O)N[C@@H](Cc1c[nH]c2ccccc12)C(=O)O)[C@@H](C)CC` [Compound 33] (H-CNWHGTAPCWVYFAHLDIIW-OH; disulfide 1-9), the IC50 worked out at 0.16 nM.

As for H-GNWHGTAPDWVYFAHLEIIW-OH [Compound 43], the IC50 came to 17 nM.

With “H-VYFSHLDIIW-OH [Compound w, H-Val-Tyr-Phe-Ser-His-Leu-Asp-Ile-Ile-Trp-OH, reference compound]”, the IC50 is above 1000 nM.

As to “H-GNWHGTAPDWYFAHLDIIW-OH [Compound 10, HGlyAsnTrpHisGlyThrAlaProAspTrpTyrPheAlaHisLeuAspIleIleTrpOH]”, the IC50 is 0.57 nM.

Regarding `CC[C@H](C)[C@H](NC(=O)[C@H](Cc1cccs1)NC(=O)[C@@H](NC(=O)[C@H](CC(C)C)NC(=O)[C@H](Cc1c[nH]cn1)NC(=O)[C@H](C)NC(=O)[C@H](Cc1ccccc1)NC(=O)[C@H](Cc1ccc(O)cc1)NC(=O)[C@@H](NC(=O)[C@H](Cc1c[nH]c2ccccc12)NC(=O)[C@@H]1CC(=O)NCC(=O)N[C@@H](CC(N)=O)C(=O)N[C@@H](Cc2c[nH]c3ccccc23)C(=O)N[C@@H](Cc2c[nH]cn2)C(=O)NCC(=O)N[C@@H]([C@@H](C)O)C(=O)N[C@@H](C)C(=O)N2CCC[C@H]2C(=O)N1)C(C)C)[C@@H](C)O)C(=O)N[C@@H](Cc1c[nH]c2ccccc12)C(=O)O` [Compound 41] (GNWHGTAPDWVYFAHLT[2Thi]IW-OH; lactam N-9), the IC50 turned out to be 2.5 nM.

With `CC[C@H](C)[C@H](NC(=O)[C@H](Cc1cccs1)NC(=O)[C@@H](NC(=O)[C@H](CC(C)C)NC(=O)[C@@H](Cc1c[nH]c2ccccc12)NC(=O)[C@H](C)NC(=O)[C@H](Cc1ccccc1)NC(=O)[C@H](Cc1ccc(O)cc1)NC(=O)[C@@H](NC(=O)[C@H](Cc1c[nH]c2ccccc12)NC(=O)[C@H](CC(=O)O)NC(=O)[C@@H]1CCCN1C(=O)[C@H](C)NC(=O)[C@@H](NC(=O)CNC(=O)[C@H](Cc1c[nH]cn1)NC(=O)[C@H](Cc1c[nH]c2ccccc12)NC(=O)[C@H](CC(N)=O)NC(=O)CN)[C@@H](C)O)C(C)C)[C@@H](C)O)C(=O)N[C@@H](Cc1c[nH]c2ccccc12)C(=O)O` [Compound 28, HGlyAsnTrpHisGlyThrAlaProAspTrpValTyrPheAlaD-TrpLeuThrThiIleTrpOH] (H-GNWHGTAPDWVYFA[dW]LT[2Thi]IW-OH), the IC50 worked out at 89 nM.

With “H-NWHGTAPDWVYFAHLDIIW-OH [Compound 7, HAsnTrpHisGlyThrAlaProAspTrpValTyrPheAlaHisLeuAspIleIleTrpOH]”, the IC50 was 0.1 nM.

As to `CCCC[C@H](NC(=O)[C@@H](NC(=O)[C@H](CC(C)C)NC(=O)[C@H](Cc1c[nH]cn1)NC(=O)[C@H](C)NC(=O)[C@H](Cc1ccccc1)NC(=O)[C@H](Cc1ccc(O)cc1)NC(=O)[C@@H](NC(=O)[C@H](Cc1c[nH]c2ccccc12)NC(=O)[C@H](CC(=O)O)NC(=O)[C@@H]1CCCN1C(=O)[C@H](C)NC(=O)[C@@H](NC(=O)CNC(=O)[C@H](Cc1c[nH]cn1)NC(=O)[C@H](Cc1c[nH]c2ccccc12)NC(=O)[C@H](CC(N)=O)NC(=O)CN)[C@@H](C)O)C(C)C)[C@@H](C)O)C(=O)N[C@H](C(=O)N[C@@H](Cc1c[nH]c2ccccc12)C(=O)O)[C@@H](C)CC` [Compound 26, HGlyAsnTrpHisGlyThrAlaProAspTrpValTyrPheAlaHisLeuThrNleIleTrpOH] (H-GNWHGTAPDWVYFAHLT[Nle]IW-OH), the IC50 worked out at 0.63 nM.
